≈ marks a conversion by molar mass, not a printed value.
Tested on: Histophilus somni
Assay: minimum inhibitory concentration (MIC)
Protocol: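 Broth microdilution MIC (Sensititre BOPO7F bovine plate, CLSI methods) of 19 antimicrobials against field isolates of P. multocida, M. haemolytica, H. somni (deep nasopharyngeal swabs) and E. coli, Enterococcus spp. (rectal swabs) from weaned dairy heifers. Incubation 16-24 h at 35 C. MIC is the lowest concentration preventing visible growth. Values with <= or > lie at the tested range limits. Trimethoprim-sulfamethoxazole is given as the trimethoprim component of a 1:19 mixture.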

CN[C@@H]1[C@H](O)[C@H](NC)[C@H]2O[C@@]3(O)C(=O)C[C@@H](C)O[C@H]3O[C@@H]2[C@H]1O [Spectinomycin]
Conditions | minimum inhibitory concentration [µg/mL]
isolate (source animal id): 3 | > 64
isolate (source animal id): 4 | > 64
isolate (source animal id): 7 | ≤ 8
isolate (source animal id): 14 | 16 (≈ 48.1 µM)
isolate (source animal id): 15 | > 64
isolate (source animal id): 17 | ≤ 8
isolate (source animal id): 18 | > 64
isolate (source animal id): 20 | 16 (≈ 48.1 µM)
isolate (source animal id): 23 | 16 (≈ 48.1 µM)
isolate (source animal id): 45 | 16 (≈ 48.1 µM)
isolate (source animal id): 53 | ≤ 8
isolate (source animal id): 83 | ≤ 8
isolate (source animal id): 88 | > 64
isolate (source animal id): 92 | 32 (≈ 96.3 µM)
isolate (source animal id): 93 | 64 (≈ 193 µM)
isolate (source animal id): 99 | 16 (≈ 48.1 µM)
isolate (source animal id): 100 | 16 (≈ 48.1 µM)
isolate (source animal id): 105 | 16 (≈ 48.1 µM)
isolate (source animal id): 107 | 16 (≈ 48.1 µM)
isolate (source animal id): 108 | 16 (≈ 48.1 µM)
isolate (source animal id): 109 | 16 (≈ 48.1 µM)
isolate (source animal id): 110 | 32 (≈ 96.3 µM)
isolate (source animal id): 117 | > 64
isolate (source animal id): 121 | > 64
isolate (source animal id): 123 | > 64
isolate (source animal id): 124 | > 64
isolate (source animal id): 127 | > 64
isolate (source animal id): 128 | > 64
isolate (source animal id): 130 | > 64
isolate (source animal id): 132 | > 64
isolate (source animal id): 135 | ≤ 8
isolate (source animal id): 140 | > 64
isolate (source animal id): 141 | 16 (≈ 48.1 µM)
isolate (source animal id): 142 | 32 (≈ 96.3 µM)
isolate (source animal id): 144 | > 64
isolate (source animal id): 146 | 64 (≈ 193 µM)
isolate (source animal id): 147 | 16 (≈ 48.1 µM)
isolate (source animal id): 151 | > 64
isolate (source animal id): 153 | > 64
isolate (source animal id): 154 | 16 (≈ 48.1 µM)
isolate (source animal id): 156 | 16 (≈ 48.1 µM)
isolate (source animal id): 157 | > 64
isolate (source animal id): 176 | > 64
isolate (source animal id): 183 | > 64
isolate (source animal id): 186 | > 64
isolate (source animal id): 196 | > 64
isolate (source animal id): 198 | > 64
isolate (source animal id): 200 | > 64
isolate (source animal id): 206 | > 64
isolate (source animal id): 208 | > 64
isolate (source animal id): 210 | > 64
isolate (source animal id): 212 | > 64
isolate (source animal id): 215 | > 64
isolate (source animal id): 216 | > 64
isolate (source animal id): 218 | > 64
isolate (source animal id): 219 | > 64
isolate (source animal id): 224 | > 64
isolate (source animal id): 228 | > 64
isolate (source animal id): 230 | > 64
isolate (source animal id): 233 | 64 (≈ 193 µM)
isolate (source animal id): 238 | > 64
isolate (source animal id): 239 | > 64
isolate (source animal id): 241 | > 64
isolate (source animal id): 242 | > 64
isolate (source animal id): 243 | > 64
isolate (source animal id): 245 | ≤ 8
isolate (source animal id): 246 | > 64
isolate (source animal id): 247 | > 64
isolate (source animal id): 248 | ≤ 8
isolate (source animal id): 250 | > 64
isolate (source animal id): 251 | > 64
isolate (source animal id): 252 | 64 (≈ 193 µM)
isolate (source animal id): 254 | > 64
isolate (source animal id): 258 | > 64
isolate (source animal id): 259 | > 64
isolate (source animal id): 262 | > 64
isolate (source animal id): 264 | 32 (≈ 96.3 µM)
isolate (source animal id): 265 | 16 (≈ 48.1 µM)
isolate (source animal id): 266 | > 64
isolate (source animal id): 267 | > 64
isolate (source animal id): 269 | > 64
isolate (source animal id): 271 | > 64
isolate (source animal id): 272 | 16 (≈ 48.1 µM)
isolate (source animal id): 274 | > 64
isolate (source animal id): 276 | ≤ 8
isolate (source animal id): 278 | > 64
isolate (source animal id): 280 | 16 (≈ 48.1 µM)
isolate (source animal id): 281 | > 64
isolate (source animal id): 283 | > 64
isolate (source animal id): 288 | > 64
isolate (source animal id): 291 | > 64
isolate (source animal id): 292 | > 64
isolate (source animal id): 296 | > 64
isolate (source animal id): 306 | > 64
isolate (source animal id): 336 | > 64
isolate (source animal id): 337 | > 64
isolate (source animal id): 341 | > 64

Source: the supplement of paper PMC8612539
